The source of these data is patent US20250270170A1, “2,3-DIMETHOXY-5-METHYL-1,4-BENZOQUINONE ALKYL ALCOHOL DERIVATIVE AND USE THEREOF” (BEIJING ANJIANXI BIO-MEDICAL TECHNOLOGY CO., LTD., priority 2021, published 2025).

For one assay, the system named is NCI-H460 cells. As to the kind of experiment: CCK-8 cell proliferation assay, NCI-H460. The note with it: Homo sapiens. In kind it is cell-based. How it is done: (1) Cells in the logarithmic growth phase were taken and digested to make a cell suspension. 20 μl of the cell suspension was taken with a pipette, and added to a CountStar disposable cell counting plate for cell counting, and the counting results were recorded. The cell concentration was adjusted to 30,000 to 40,000 cells/ml (note: different cells have different growth rates, so the number of cells in each well was slightly different).
(2) A 96-well plate was taken. Since the wells in the outermost circle of the culture plate were easy to evaporate and dry, causing inaccurate volumes, and increasing errors, 100 μl of PBS was added to the wells in the outermost circle, which were not used as assay wells.
(3) The adjusted cell suspension was added to the 96-well plate, with 100 μl in each well, resulting approximately 3000 to 4000 cells in each well. The plate was placed in a 37° C. incubator under the condition of 5% CO2 for cell culture, and the drug was added when the cells adhered to the wall.
(4) Drug dilution. The concentration gradient was set as: 0 μM, 10 μM, 50 μM, 100 μM, and 200 μM, with 3 duplicates for each concentration. In addition, blank control wells containing only culture medium and drug without cells were also set.
(5) The plate was incubated in the incubator for 24 h, 48 h and 72 h, respectively. After reaching the set time point, the 96-well plate was taken out from the incubator, and 10 μl of CCK-8 reagent was added to each well, taking care to avoid bubbles. The plate was shaked to mix evenly, and put back into the incubator to culture for another 2 hours.
(6) To detect the absorbance, the 96-well plate was placed in a […], and the absorbance value (OD value) at 450 nm was detected. The data was recorded. Cell viability=(OD value of the assay well−OD value of the blank control well)/(OD value of the solvent control well−OD value of the blank control well)×100%.
(7) The data was imported into GraphPad Prism5 for plotting. The IC50 values were calculated, and the curves were drawn.
(In general: Tetrazolium assays rely on reduction of a dye to a coloured formazan, in cell work by metabolically active cells.)

In assay [1] the test system is cisplatin-induced acute kidney damage in mice. As to the kind of experiment: Example 11: serum creatinine (Cre) in cisplatin-induced acute kidney damage model. In kind it is in vivo, C57BL/6J mice. The note with it: for Serum creatinine (Cre) level after the assay, x (mean): group mean; for Serum creatinine (Cre) level after the assay, x (mean) / Serum creatinine (Cre) level after the assay: cisplatin model; for Serum creatinine (Cre) level after the assay: individual animals No. 1-7. How it is done:
42 male C57BL/6J mice (age: 6 to 8 weeks, body weight 18-20 g, certificate number: 11400700238365) were purchased from Si Pei Fu (Beijing) Biotechnology Co., Ltd., and raised in an SPF-grade animal room of the Institute of Materia Medica, Chinese Academy of Medical Sciences, at a temperature of 20 to 25° C., a relative humidity of 40% to 70%, and a cycle of 12 hours of light and 12 hours of dark. The animals had free access to water and food. After 3 days of normal feeding, mice with good physical conditions after the veterinary examination were selected for this assay. Before grouping, a marker was used to mark on the base of the animals' tail. After grouping, each animal was marked with an ear cutout (7 mice in each group).
Assay animals: 42 7-week-old male C57 mice were used for animal testing after an adaptive feeding.
Group 1: blank control group;
The preparation of the R01 formulation administration test solution was the same as that in Example 5: an appropriate amount of the R01 formulation was weighed according to the three dosages set in the assay, respectively, and an appropriate volume of 0.5% CMC-Na aqueous solution was added. The mixture was vortexed and sonicated until mixed evenly, to give the administration test solutions with concentrations of […], respectively, which were ready for use.
Animal testing period: 7 days (excluding adaptive feeding), hereinafter referred to as: D1-D7.
1. The first group was a solvent control group: N=7, all mice were males (the same below); • a) 0.5% solution of sodium carboxymethyl cellulose was gavagely administered from D1 to D6 (twice a day for each animal, with an interval of 8 hours between the morning and the afternoon). • b) Physiological saline was intraperitoneally injected in one-time on D4. • c) On D7, blood was collected from the orbit for euthanasia (300 ul of serum was extracted), the left kidney was fixed in formaldehyde, and the right kidney was preserved in liquid nitrogen (WB study may be carried out).
1) The concentrations of urea nitrogen and creatinine in peripheral blood serum were tested.
The body weight of the animals when being grouped for administration in each group was recorded. The body weight and the kidney weight at the end of the assay were also recorded, and the kidney coefficient was calculated. The creatinine and urea nitrogen values in the blood samples sent for testing were recorded. The kidneys were stained with HE and PAS, and the slides were scanned. A report was issued after the pathological analysis.
The assay data were calculated and processed statistically using Microsoft Office Excel 2007 software. Unless otherwise specified, the data were expressed as mean±standard error (Mean±SE), and t-test was used for comparison between two groups.

Values joined by “and” are separate entries in the source; they are usually repeats but may differ in a detail not shown here. Equal entries are not always repeated.

Consider `COC1=C(OC)C(=O)C(CCCCCCCCCCOC(=O)Cc2c(C)n(C(=O)c3ccc(Cl)cc3)c3ccc(OC)cc23)=C(C)C1=O` [compound of formula (I)], for which the IC50 – broadly, the concentration that gives 50% inhibition – is 125.3 ± 1.01 µM with NCI-H460 cells (24 h), 66.4 ± 0.87 µM with NCI-H460 cells (48 h) and 48.5 ± 1.12 µM in the assay with NCI-H460 cells (72 h). The serum creatinine value entry in assay [1] (cisplatin 10 mg/kg alone (vs blank, P<0.01) or with amifostine 50 mg/kg i.p. / R01 6, 18, 36 mg/kg bid) is given as “equivalent to that of the blank control group”. Besides, the “Serum creatinine (Cre) level after the assay, x (mean)” value turned out to be 18.4 mg/dL in assay [1] (R01 6 mg/kg), 15.4 mg/dL in assay [1] (R01 18 mg/kg) and 15.3 mg/dL in assay [1] (R01 36 mg/kg). Moreover, the “Serum creatinine (Cre) level after the assay” value in assay [1] (R01 6 mg/kg, listed as R01, 6 mg/kg) is 20 mg/dl (2×) and 23 mg/dl and 26 mg/dl and 17 mg/dl and 18 mg/dl and 5 mg/dl; in assay [1] (R01 18 mg/kg, listed as R01, 18 mg/kg), 15 mg/dl (2×) and 12 mg/dl (2×) and 17 mg/dl and 16 mg/dl and 21 mg/dl; in assay [1] (R01 36 mg/kg, listed as R01, 36 mg/kg), 15 mg/dl (3×) and 13 mg/dl and 17 mg/dl and 16 mg/dl (2×).
